Experimental data: the supplement of paper PMC10307832

How the values were obtained:
Assay in all cases: relative viability (nuclei count vs DMSO), 5 days (fraction); higher = more cells survive
NCI-H1395 = tested on: NCI-H1395
In short: (§1)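 Lung cancer cell lines were pin-tool dosed in 1536-well plates on the day after seeding, with either a lone drug or a fixed anchor-drug dose plus five library-drug doses (not always all listed) in √10 steps. Nuclei were counted on 4× images after 5 days. Relative viability is the ratio of treated-well to vehicle-well nuclei counts, with each value a median of duplicate plates.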

NCI-H2405 = tested on: NCI-H2405
In short: as §1

NCI-H661 = tested on: NCI-H661
In short: as §1

HARA = tested on: HARA
In short: as §1

NCI-H1355 = tested on: NCI-H1355
In short: as §1

BEN = tested on: BEN
In short: as §1

NCI-H1437 = tested on: NCI-H1437
In short: as §1

HCC-827 = tested on: HCC-827
In short: as §1

NCI-H1792 = tested on: NCI-H1792
In short: as §1

NCI-H647 = tested on: NCI-H647
In short: as §1

NCI-H2087 = tested on: NCI-H2087
In short: as §1

NCI-H2009 = tested on: NCI-H2009
In short: as §1

NCI-H1993 = tested on: NCI-H1993
In short: as §1

NCI-H1734 = tested on: NCI-H1734
In short: as §1

SK-MES-1 = tested on: SK-MES-1
In short: as §1

HCC-366 = tested on: HCC-366
In short: as §1

SK-LU-1 = tested on: SK-LU-1
In short: as §1

EKVX = tested on: EKVX
In short: as §1

LOU-NH91 = tested on: LOU-NH91
In short: as §1

CC(=O)O[C@@]12CO[C@@H]1C[C@H](O)[C@@]1(C)C(=O)[C@H](O)C3=C(C)[C@@H](OC(=O)[C@H](O)[C@@H](NC(=O)OC(C)(C)C)c4ccccc4)C[C@@](O)([C@@H](OC(=O)c4ccccc4)[C@H]21)C3(C)C [Docetaxel] + C[C@]1(O)C[C@@H](c2nc(-c3ccc4ccc(-c5ccccc5)nc4c3)c3c(N)nccn32)C1 [Linsitinib] (partner 1 µM)
relative viability (NCI-H1395; first compound 0.0002 µM): 1.05 | relative viability (NCI-H1395; first compound 0.000632 µM): 1.19 | relative viability (NCI-H1395; first compound 0.002 µM): 0.787 | relative viability (NCI-H1395; first compound 0.006325 µM): 0.431 | relative viability (NCI-H1395; first compound 0.02 µM): 0.336 | relative viability (NCI-H2405; first compound 0.0002 µM): 0.95 | relative viability (NCI-H2405; first compound 0.000632 µM): 0.913 | relative viability (NCI-H2405; first compound 0.002 µM): 0.667 | relative viability (NCI-H2405; first compound 0.006325 µM): 0.438 | relative viability (NCI-H2405; first compound 0.02 µM): 0.316 | relative viability (NCI-H661; first compound 0.0002 µM): 0.593 | relative viability (NCI-H661; first compound 0.000632 µM): 0.683 | relative viability (NCI-H661; first compound 0.002 µM): 0.45 | relative viability (NCI-H661; first compound 0.006325 µM): 0.449 | relative viability (NCI-H661; first compound 0.02 µM): 0.261 | relative viability (HARA; first compound 0.0002 µM): 0.739 | relative viability (HARA; first compound 0.000632 µM): 0.482 | relative viability (HARA; first compound 0.002 µM): 0.235 | relative viability (HARA; first compound 0.006325 µM): 0.0978 | relative viability (HARA; first compound 0.02 µM): 0.0632 | relative viability (NCI-H1355; first compound 0.0002 µM): 0.75 | relative viability (NCI-H1355; first compound 0.000632 µM): 0.771 | relative viability (NCI-H1355; first compound 0.002 µM): 0.467 | relative viability (NCI-H1355; first compound 0.006325 µM): 0.297 | relative viability (NCI-H1355; first compound 0.02 µM): 0.188 | relative viability (BEN; first compound 0.0002 µM): 0.827 | relative viability (BEN; first compound 0.000632 µM): 0.812 | relative viability (BEN; first compound 0.002 µM): 0.473 | relative viability (BEN; first compound 0.006325 µM): 0.246 | relative viability (BEN; first compound 0.02 µM): 0.189 | relative viability (NCI-H1437; first compound 0.0002 µM): 0.964 | relative viability (NCI-H1437; first compound 0.000632 µM): 0.805 | relative viability (NCI-H1437; first compound 0.006325 µM): 0.124 | relative viability (NCI-H1437; first compound 0.02 µM): 0.0906 | relative viability (HCC-827; first compound 0.0002 µM): 0.971 | relative viability (HCC-827; first compound 0.000632 µM): 0.927 | relative viability (HCC-827; first compound 0.002 µM): 0.892 | relative viability (HCC-827; first compound 0.006325 µM): 0.438 | relative viability (HCC-827; first compound 0.02 µM): 0.347 | relative viability (NCI-H1792; first compound 0.0002 µM): 0.539 | relative viability (NCI-H1792; first compound 0.000632 µM): 0.509 | relative viability (NCI-H1792; first compound 0.002 µM): 0.379 | relative viability (NCI-H1792; first compound 0.02 µM): 0.0833 | relative viability (NCI-H647; first compound 0.0002 µM): 0.966 | relative viability (NCI-H647; first compound 0.000632 µM): 0.623 | relative viability (NCI-H647; first compound 0.002 µM): 0.123 | relative viability (NCI-H647; first compound 0.006325 µM): 0.102 | relative viability (NCI-H647; first compound 0.02 µM): 0.082 | relative viability (NCI-H2087; first compound 0.0002 µM): 0.848 | relative viability (NCI-H2087; first compound 0.000632 µM): 0.68 | relative viability (NCI-H2087; first compound 0.002 µM): 0.301 | relative viability (NCI-H2087; first compound 0.006325 µM): 0.326 | relative viability (NCI-H2087; first compound 0.02 µM): 0.156 | relative viability (NCI-H2009; first compound 0.0002 µM): 1.15 | relative viability (NCI-H2009; first compound 0.000632 µM): 1.18 | relative viability (NCI-H2009; first compound 0.002 µM): 0.77 | relative viability (NCI-H2009; first compound 0.006325 µM): 0.522 | relative viability (NCI-H2009; first compound 0.02 µM): 0.187 | relative viability (NCI-H1993; first compound 0.0002 µM): 0.796 | relative viability (NCI-H1993; first compound 0.000632 µM): 0.739 | relative viability (NCI-H1993; first compound 0.002 µM): 0.807 | relative viability (NCI-H1993; first compound 0.006325 µM): 0.605 | relative viability (NCI-H1993; first compound 0.02 µM): 0.488 | relative viability (NCI-H1734; first compound 0.0002 µM): 0.918 | relative viability (NCI-H1734; first compound 0.000632 µM): 0.825 | relative viability (NCI-H1734; first compound 0.002 µM): 0.516 | relative viability (NCI-H1734; first compound 0.006325 µM): 0.373 | relative viability (NCI-H1734; first compound 0.02 µM): 0.235 | relative viability (SK-MES-1; first compound 0.0002 µM): 1.05 | relative viability (SK-MES-1; first compound 0.000632 µM): 0.967 | relative viability (SK-MES-1; first compound 0.002 µM): 0.634 | relative viability (SK-MES-1; first compound 0.006325 µM): 0.26 | relative viability (SK-MES-1; first compound 0.02 µM): 0.177 | relative viability (HCC-366; first compound 0.0002 µM): 0.423 | relative viability (HCC-366; first compound 0.000632 µM): 0.545 | relative viability (HCC-366; first compound 0.002 µM): 0.0386 | relative viability (HCC-366; first compound 0.006325 µM): 0.012 | relative viability (HCC-366; first compound 0.02 µM): 0.0114 | relative viability (SK-LU-1; first compound 0.0002 µM): 0.899 | relative viability (SK-LU-1; first compound 0.000632 µM): 0.437 | relative viability (SK-LU-1; first compound 0.002 µM): 0.406 | relative viability (SK-LU-1; first compound 0.006325 µM): 0.344 | relative viability (SK-LU-1; first compound 0.02 µM): 0.232 | relative viability (EKVX; first compound 0.0002 µM): 0.899 | relative viability (EKVX; first compound 0.000632 µM): 0.804 | relative viability (EKVX; first compound 0.002 µM): 0.427 | relative viability (EKVX; first compound 0.006325 µM): 0.23 | relative viability (EKVX; first compound 0.02 µM): 0.115 | relative viability (LOU-NH91; first compound 0.0002 µM): 0.967 | relative viability (LOU-NH91; first compound 0.000632 µM): 0.8 | relative viability (LOU-NH91; first compound 0.002 µM): 0.586 | relative viability (LOU-NH91; first compound 0.006325 µM): 0.434 | relative viability (LOU-NH91; first compound 0.02 µM): 0.324
